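Cultured in 96-well plates, cells were exposed to test compound for 48 hours across five concentrations. At the TGI there is no net growth.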 Where a SMILES comes first, the peptide text is derived from it. The star is where a group is joined. Cbz = O=C(OCc1ccccc1)*
What was measured:
Test in all cases: inhibition of tumour cell growth, NCI panel, 48 h
786-0 renal = test system: 786-0 renal
A549 NSCLC = test system: A549 NSCLC
CAKI-1 renal = test system: CAKI-1 renal
HCT-116 colon = test system: HCT-116 colon
HL-60(TB) leukemia = test system: HL-60(TB) leukemia
HOP-92 NSCLC = test system: HOP-92 NSCLC
HT29 colon = test system: HT29 colon
IGROV1 ovarian = test system: IGROV1 ovarian
K-562 leukemia = test system: K-562 leukemia
LOX IMVI melanoma = test system: LOX IMVI melanoma
M14 melanoma = test system: M14 melanoma
MDA-MB-231 breast = test system: MDA-MB-231 breast
MOLT-4 leukemia = test system: MOLT-4 leukemia
OVCAR-4 ovarian = test system: OVCAR-4 ovarian
SF-268 CNS = test system: SF-268 CNS
SF-295 CNS = test system: SF-295 CNS
SN12C renal = test system: SN12C renal
SW-620 colon = test system: SW-620 colon
UO-31 renal = test system: UO-31 renal
SK-MEL-2 melanoma = test system: SK-MEL-2 melanoma

| SMILES | TGI (786-0 renal) [µM] | TGI (A549 NSCLC) [µM] | TGI (CAKI-1 renal) [µM] | TGI (HCT-116 colon) [µM] | TGI (HL-60(TB) leukemia) [µM] | TGI (HOP-92 NSCLC) [µM] | TGI (HT29 colon) [µM] | TGI (IGROV1 ovarian) [µM] | TGI (K-562 leukemia) [µM] | TGI (LOX IMVI melanoma) [µM] | TGI (M14 melanoma) [µM] | TGI (MDA-MB-231 breast) [µM] | TGI (MOLT-4 leukemia) [µM] | TGI (OVCAR-4 ovarian) [µM] | TGI (SF-268 CNS) [µM] | TGI (SF-295 CNS) [µM] | TGI (SN12C renal) [µM] | TGI (SW-620 colon) [µM] | TGI (UO-31 renal) [µM] | TGI (SK-MEL-2 melanoma) [µM] |
| --- | --- | --- | --- | --- | --- | --- | --- | --- | --- | --- | --- | --- | --- | --- | --- | --- | --- | --- | --- | --- |
| COC(=O)C(CC(C)C)NC(=O)C(CCCN=C(N)N)NC(=O)OCc1ccccc1 (stereo not drawn) (Cbz-Arg-Leu-OMe; configuration not given here) | > 100 | > 100 | > 100 | > 100 | > 100 | > 100 | > 100 | > 100 | > 100 | > 100 | > 100 | > 100 | > 100 | > 100 | > 100 | > 100 | > 100 | > 100 | > 100 | – |
| CN(/N=C/c1ccc(Cl)c(Cl)c1)C1=NCCCCN1 | 47.8 | > 100 | 82.7 | 79.4 | 65.5 | 49.6 | > 100 | > 100 | 69.3 | 27.2 | 29.9 | > 100 | 80.9 | > 100 | > 100 | > 100 | > 100 | 38 | – | 42.1 |
| O=C(O)/C=C/c1ccc(OS(=O)(=O)O)cc1 | > 100 | > 100 | > 100 | > 100 | > 100 | > 100 | > 100 | > 100 | > 100 | > 100 | > 100 | > 100 | > 100 | > 100 | > 100 | > 100 | > 100 | > 100 | > 100 | > 100 |
| CCOC(=O)C(NC(=O)c1cccc(Cl)c1)(Nc1ccc(S(=O)(=O)Nc2cc(C)nc(C)n2)cc1)C(F)(F)F (stereo not drawn) | > 100 | > 100 | > 100 | > 100 | > 100 | > 100 | > 100 | > 100 | – | > 100 | > 100 | > 100 | > 100 | > 100 | > 100 | > 100 | > 100 | > 100 | > 100 | > 100 |
| C1=CCC[C@@H]2CN3CCCC/C=C\CCCC[C@H]4C[C@H](CN(CCCCCCCC1)C4)[C@H]2CC3 | 15.9 | 17.8 | 18.2 | 16.3 | 28.4 | – | 20.8 | 18 | 24 | 16 | 18.7 | 16.4 | 21.2 | 26.8 | 21.3 | 16.4 | 21 | 16.4 | – | 15.9 |
| O=C1CCC2(CC1CCS(=O)c1ccccc1)OCCO2 (stereo not drawn) | > 100 | > 100 | > 100 | – | > 100 | > 100 | > 100 | > 100 | > 100 | > 100 | > 100 | > 100 | > 100 | > 100 | > 100 | > 100 | – | > 100 | > 100 | > 100 |
| CC[C@]1(Cc2ccc(OC)c(OC)c2)C2CC(C(=O)OC)ON2O[C@H](OCc2ccccc2)[C@@H]1OC(C)=O (stereo partly drawn) | > 100 | > 100 | > 100 | > 100 | 66.1 | > 100 | > 100 | > 100 | > 100 | > 100 | > 100 | > 100 | > 100 | > 100 | – | > 100 | > 100 | > 100 | > 100 | > 100 |
| COc1ccc2c(=O)c3c([nH]c2c1)OCC3=O | > 100 | – | > 100 | > 100 | > 100 | > 100 | > 100 | > 100 | > 100 | > 100 | > 100 | > 100 | > 100 | > 100 | > 100 | > 100 | – | > 100 | > 100 | > 100 |
| Cc1cccc2c(NCCN(C)C)c3cccc(C(=O)NCCN(C)C)c3nc12 | 3.38 | 29.2 | 4.92 | 4.87 | 0.637 | 1.46 | 4.16 | 6.64 | 0.065 | 1.76 | 2.44 | 0.728 | 0.102 | > 100 | 2.85 | 3.77 | 1.69 | 7.78 | 1.63 | 1.13 |
| C=CCc1cccc2cc(C(=O)Nc3ccc(C)cc3)c(=N)oc12 | > 100 | > 100 | > 100 | > 100 | > 100 | > 100 | > 100 | > 100 | > 100 | > 100 | > 100 | > 100 | > 100 | > 100 | > 100 | – | > 100 | > 100 | – | > 100 |
| COc1ccc2nc3cc([N+](=O)[O-])ccc3c(Nc3ccc(S(=O)(=O)Nc4ncccn4)cc3)c2c1 | > 100 | > 100 | > 100 | > 100 | > 100 | > 100 | > 94.8 | > 100 | > 88.2 | > 100 | > 100 | > 100 | > 48.3 | > 100 | > 100 | > 100 | > 100 | > 100 | > 100 | > 86.3 |
| CC(=O)C1C(=O)C(C(C)=O)C2C3C=CC(C3)C12 (stereo not drawn) | > 100 | > 100 | > 100 | > 100 | > 100 | > 100 | > 100 | > 100 | > 100 | > 100 | – | > 100 | > 100 | > 100 | > 100 | > 100 | > 100 | > 100 | > 100 | > 100 |
| Cc1nc(-n2nc(-c3ccccc3)cc2-c2ccccc2)sc1C(=O)/C=C/c1ccc([N+](=O)[O-])cc1 | 29.8 | > 100 | > 55 | 28.3 | 55.9 | > 85.7 | > 100 | > 100 | > 70.6 | 52.5 | 94.7 | > 100 | 51.5 | > 100 | > 87.6 | > 100 | > 76.4 | > 71.2 | > 54 | > 100 |
| N#Cc1sc2c(c1OC(=O)c1ccc(Cl)cc1Cl)c(=O)n(-c1ccccc1)c(=S)n2-c1ccccc1 | 77.3 | > 100 | 54.5 | 39.2 | 46.7 | 68.9 | 55 | 38.6 | 68 | 39.8 | 36.6 | 75.1 | 45.9 | 66.5 | > 100 | 81.2 | 57.8 | 72.7 | 0.424 | – |
| COn1oc(=O)c2ccccc21 | > 100 | > 100 | > 100 | > 100 | > 100 | > 100 | > 100 | > 100 | > 100 | > 100 | > 100 | > 100 | > 100 | > 100 | > 100 | > 100 | > 100 | > 100 | > 100 | > 100 |
| COCN1C(=N)C(C(=O)OC(C)(C)C)=C2C=C(O)C=CC21C (stereo not drawn) | 24.7 | 34.9 | 28.5 | 20.7 | 83.3 | 17.4 | 19.9 | 28.2 | > 100 | 26.5 | 29.5 | 29 | > 100 | 26.6 | 29.5 | > 100 | 73.9 | 17.5 | 26.4 | 31.9 |
| Cc1ccc2nc(CN(CCO)CCO)cc(=O)n2c1 | > 100 | > 100 | > 100 | > 100 | > 100 | > 100 | > 100 | > 100 | > 100 | > 100 | > 100 | > 100 | > 100 | > 100 | > 100 | > 100 | > 100 | > 100 | > 100 | > 100 |
| Cn1c2ccccc2c2c3c(c4c5ccccc5n(C5OC(CO)C(O)C(O)C5O)c4c21)C(=O)OC3=O (stereo not drawn) | > 100 | > 100 | > 100 | > 100 | – | > 100 | > 100 | > 100 | > 100 | > 100 | > 100 | > 100 | > 100 | > 100 | > 100 | > 100 | > 100 | > 100 | > 100 | > 100 |
| O=C(c1ccccc1)N(CCCCNC(=O)C(F)(F)F)CCCNC(=O)C(F)(F)F | > 100 | > 100 | > 100 | > 100 | > 100 | > 100 | > 100 | > 100 | > 100 | > 100 | > 100 | > 100 | > 100 | > 100 | > 100 | > 100 | > 100 | > 100 | > 100 | – |
| OCC(O)COCn1cc(Cn2ncc3c(NCc4ccccc4)ncnc32)nn1 (stereo not drawn) | > 100 | > 100 | > 100 | > 100 | > 100 | > 100 | > 100 | > 100 | – | > 100 | > 100 | > 100 | > 100 | > 100 | 32.8 | > 100 | > 100 | > 100 | > 100 | > 100 |
| CCOC(=O)[C@@]1(C(C)=O)CC(C)=C(C)C[S@]1=O | > 100 | > 100 | > 100 | > 100 | – | > 100 | – | > 100 | > 100 | > 100 | > 100 | > 100 | > 100 | > 100 | > 100 | > 100 | > 100 | > 100 | > 100 | > 100 |
| Cc1cn(C2CC(N=[N+]=[N-])C(CO)O2)c(=O)n(CCCCBr)c1=O (stereo not drawn) | > 100 | > 100 | > 100 | > 100 | – | > 100 | > 100 | > 100 | > 100 | > 100 | > 100 | > 100 | > 100 | > 100 | > 100 | > 100 | > 100 | > 100 | > 100 | > 100 |
| N#CC1(C#N)[C@@H]2CCC=C(Sc3ccccc3)[C@@H]21 | 35.5 | 52.8 | 27.2 | 29.6 | 49.9 | 30.7 | 34.8 | 39.8 | > 100 | 36.8 | 26.5 | 43.7 | 85.9 | 29 | 39 | 32.8 | 32.3 | 26 | – | 28.3 |
| COC(=O)/C=C\C(C#N)(C#N)N=Cc1cccs1 | > 46.3 | > 56 | 3.77 | > 50.2 | 4.2 | 3.75 | 4.24 | 32 | > 100 | 6.68 | 15.4 | 5.74 | > 24.5 | 17 | 32.1 | 42.3 | 38.7 | – | 5.99 | 34.3 |

From PubChem BioAssay (NCI)
